Results as given in article PMC9186362, “Design and biological evaluation of substituted 5,7-dihydro-6H-indolo[2,3-c]quinolin-6-one as novel selective Haspin inhibitors” (Journal of Enzyme Inhibition and Medicinal Chemistry, 2022).
pEC50, pIC50: −log10 of the molar value.

Legend:
[1] = test system: U-2 OS, HCT116, MDA-MB231, SH-SY5Y and RPE-1 cell lines; assay: Cell viability primary screen at 25 μM; type: cell-based, human; conditions: 48 h; for Effect on cell viability, primary screen: all tested cell lines
Experimental: (§1) HCT116 cells were cultured in McCoy’s medium. SH-SY5Y, MDA-MB231 and U-2 OS cells were cultured in Dulbecco's modified Eagle's medium (DMEM) and hTERT RPE-1 cells in DMEM:F12 medium. All media were supplemented with 10% foetal calf serum and cells were cultured at 37 °C in a 5% CO2 humidified atmosphere.
(§2) Cell viability was then assessed using the CellTiter96 AQueous cell proliferation assay from Promega according to the manufacturer’s instructions. Each experiment was done in triplicate and EC50 were determined from the dose-response curves according to the signal given by the control (0.1% DMSO) set at 100% viability using Prism GraphPad software.

MmCLK1 = MmCLK1 (Mus musculus, UniProt P22518); assay: ADP-Glo kinase assay; type: biochemical, Mus musculus (Mm); conditions: for remaining activity at 1 µM: mean n = 2, % of maximum activity of DMSO control, read-out: % Residual activity at 1 μM CLK1; for Selectivity index CLK1/Haspin: IC50 CLK1/IC50 Haspin; for pIC50: dose-response curve, each point in duplicate, read-out: Kinase inhibition (IC50) CLK1
Experimental: (§3) Kinase activities were determined using the ADP-Glo methodology (ADP-Glo Kinase Assay; Promega) according to the assay described by Nguyen et al.[32] except for MmCLK1. The later was assayed in the following buffer: 10 mM MgCl2, 1 mM EGTA, 1 mM DTT, 25 mM Tris-HCl pH 7.5, 50 µg/ml heparin, 0.15 mg/ml BSA, with 0.027 µg/µl of the following peptide: GRSRSRSRSRSR as substrate.

HsCdk2/Cyc A = HsCdk2/Cyc A (Homo sapiens, UniProt P24941); assay: ADP-Glo kinase assay; type: biochemical, Homo sapiens (Hs); conditions: mean n = 2, % of maximum activity of DMSO control, read-out: % Residual activity at 1 μM CDK2
Experimental: as §3

HsHaspin = target: T1, HsHaspin (Homo sapiens, UniProt Q8TF76); assay: ADP-Glo kinase assay; type: biochemical, Homo sapiens (Hs); conditions: for remaining activity at 1 µM: mean n = 2, % of maximum activity of DMSO control, read-out: % Residual activity at 1 μM Haspin; for pIC50: dose-response curve, each point in duplicate, read-out: Kinase inhibition (IC50) Haspin
T1 sequence (Q8TF76 1-798): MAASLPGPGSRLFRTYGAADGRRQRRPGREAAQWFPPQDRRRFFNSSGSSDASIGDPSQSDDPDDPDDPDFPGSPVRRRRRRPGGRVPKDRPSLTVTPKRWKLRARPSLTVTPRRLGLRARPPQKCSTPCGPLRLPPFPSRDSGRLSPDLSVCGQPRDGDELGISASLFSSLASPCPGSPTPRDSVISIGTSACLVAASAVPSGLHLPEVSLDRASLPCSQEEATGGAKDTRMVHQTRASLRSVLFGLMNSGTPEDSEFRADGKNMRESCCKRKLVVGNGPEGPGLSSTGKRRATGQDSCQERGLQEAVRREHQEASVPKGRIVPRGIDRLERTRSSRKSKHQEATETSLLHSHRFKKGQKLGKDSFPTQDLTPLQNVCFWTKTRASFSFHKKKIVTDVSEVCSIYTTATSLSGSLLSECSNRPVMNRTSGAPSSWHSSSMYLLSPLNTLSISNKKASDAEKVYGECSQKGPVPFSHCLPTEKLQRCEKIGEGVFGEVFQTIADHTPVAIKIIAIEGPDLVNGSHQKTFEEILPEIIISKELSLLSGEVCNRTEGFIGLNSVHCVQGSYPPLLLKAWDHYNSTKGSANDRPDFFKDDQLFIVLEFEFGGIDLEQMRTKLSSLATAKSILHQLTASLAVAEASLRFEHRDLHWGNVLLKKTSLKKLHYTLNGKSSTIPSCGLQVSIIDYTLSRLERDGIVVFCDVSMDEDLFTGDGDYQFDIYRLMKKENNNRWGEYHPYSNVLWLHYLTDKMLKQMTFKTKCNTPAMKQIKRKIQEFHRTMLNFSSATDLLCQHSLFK
Experimental: as §3

HsGSK3β = HsGSK3β (Homo sapiens, UniProt P49841); assay: ADP-Glo kinase assay; type: biochemical, Homo sapiens (Hs); conditions: mean n = 2, % of maximum activity of DMSO control, read-out: % Residual activity at 1 μM GSK3β
Experimental: as §3

HsCdk5/p25 = HsCdk5/p25 (Homo sapiens, UniProt Q00535); assay: ADP-Glo kinase assay; type: biochemical, Homo sapiens (Hs); conditions: mean n = 2, % of maximum activity of DMSO control, read-out: % Residual activity at 1 μM CDK5
Experimental: as §3

HsCdk9/Cyc E = HsCdk9/Cyc E (Homo sapiens, UniProt P50750); assay: ADP-Glo kinase assay; type: biochemical, Homo sapiens (Hs); conditions: mean n = 2, % of maximum activity of DMSO control, read-out: % Residual activity at 1 μM CDK9
Experimental: as §3

HsPIM1 = HsPIM1 (Homo sapiens, UniProt P11309); assay: ADP-Glo kinase assay; type: biochemical, Homo sapiens (Hs); conditions: mean n = 2, % of maximum activity of DMSO control, read-out: % Residual activity at 1 μM PIM1
Experimental: as §3

RnDYRK1A = RnDYRK1A (Rattus norvegicus, UniProt Q63470); assay: ADP-Glo kinase assay; type: biochemical, Rattus norvegicus (Rn); conditions: for Selectivity index DYRK/Haspin: IC50 DYRK1A/IC50 Haspin; for pIC50: dose-response curve, each point in duplicate, read-out: Kinase inhibition (IC50) DYRK1A; for remaining activity: mean n = 2, % of maximum activity of DMSO control, read-out: % Residual activity at 1 μM DYRK1A
Experimental: as §3

U-2 OS cell line = assay: Cell viability MTS assay, dose-response; type: cell-based; conditions: Homo sapiens, U2OS; 48 h, MTS assay in triplicate, doses up to 50 µM
Experimental: as §1, §2

RPE1 cell line = assay: Cell viability MTS assay, dose-response; type: cell-based; conditions: Homo sapiens, RPE-1; 48 h, MTS assay in triplicate, doses up to 50 µM
Experimental: as §1, §2

Sequence of MmCLK1 (P22518 whole entry): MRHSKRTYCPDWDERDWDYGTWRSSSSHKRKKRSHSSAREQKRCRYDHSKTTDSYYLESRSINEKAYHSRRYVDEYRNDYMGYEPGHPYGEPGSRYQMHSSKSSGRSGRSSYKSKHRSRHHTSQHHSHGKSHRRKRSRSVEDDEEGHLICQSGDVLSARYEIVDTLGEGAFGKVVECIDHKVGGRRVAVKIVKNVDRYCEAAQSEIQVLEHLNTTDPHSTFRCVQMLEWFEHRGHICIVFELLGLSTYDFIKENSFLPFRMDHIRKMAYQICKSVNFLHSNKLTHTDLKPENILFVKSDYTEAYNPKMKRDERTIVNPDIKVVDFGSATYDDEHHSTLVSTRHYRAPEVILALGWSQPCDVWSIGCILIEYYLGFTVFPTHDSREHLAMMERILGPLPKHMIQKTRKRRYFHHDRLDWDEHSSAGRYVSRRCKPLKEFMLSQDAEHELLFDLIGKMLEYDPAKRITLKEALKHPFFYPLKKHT
Sequence of HsGSK3β (P49841 whole entry): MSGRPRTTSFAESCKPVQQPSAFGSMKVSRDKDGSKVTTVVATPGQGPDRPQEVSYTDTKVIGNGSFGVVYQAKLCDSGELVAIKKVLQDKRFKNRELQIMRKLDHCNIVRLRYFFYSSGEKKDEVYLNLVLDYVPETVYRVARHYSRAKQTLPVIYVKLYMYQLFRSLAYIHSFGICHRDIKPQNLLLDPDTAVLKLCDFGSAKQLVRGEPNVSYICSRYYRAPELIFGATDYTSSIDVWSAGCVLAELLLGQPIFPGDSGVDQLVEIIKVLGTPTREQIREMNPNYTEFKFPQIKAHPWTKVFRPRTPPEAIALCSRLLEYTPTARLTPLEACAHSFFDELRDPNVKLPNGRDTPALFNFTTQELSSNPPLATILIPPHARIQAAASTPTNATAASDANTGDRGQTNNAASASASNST
Sequence of HsCdk5/p25 (Q00535 whole entry): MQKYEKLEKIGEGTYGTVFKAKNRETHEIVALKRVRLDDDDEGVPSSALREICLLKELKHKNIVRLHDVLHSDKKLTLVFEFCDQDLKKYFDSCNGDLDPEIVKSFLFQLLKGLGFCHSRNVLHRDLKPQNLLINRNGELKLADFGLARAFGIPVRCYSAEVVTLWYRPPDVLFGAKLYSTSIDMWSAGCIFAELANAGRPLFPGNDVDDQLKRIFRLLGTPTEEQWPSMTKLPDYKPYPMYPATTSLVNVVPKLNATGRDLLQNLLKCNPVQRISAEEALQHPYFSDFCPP
Sequence of HsCdk5/p25 (Q15078 99-307 partner limits assumed): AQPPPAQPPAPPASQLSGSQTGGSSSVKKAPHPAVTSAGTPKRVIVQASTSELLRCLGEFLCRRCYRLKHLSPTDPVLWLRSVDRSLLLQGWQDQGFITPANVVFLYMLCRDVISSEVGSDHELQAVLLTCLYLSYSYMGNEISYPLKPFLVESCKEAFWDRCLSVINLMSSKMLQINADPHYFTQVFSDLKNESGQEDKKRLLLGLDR
Sequence of HsPIM1 (P11309 whole entry): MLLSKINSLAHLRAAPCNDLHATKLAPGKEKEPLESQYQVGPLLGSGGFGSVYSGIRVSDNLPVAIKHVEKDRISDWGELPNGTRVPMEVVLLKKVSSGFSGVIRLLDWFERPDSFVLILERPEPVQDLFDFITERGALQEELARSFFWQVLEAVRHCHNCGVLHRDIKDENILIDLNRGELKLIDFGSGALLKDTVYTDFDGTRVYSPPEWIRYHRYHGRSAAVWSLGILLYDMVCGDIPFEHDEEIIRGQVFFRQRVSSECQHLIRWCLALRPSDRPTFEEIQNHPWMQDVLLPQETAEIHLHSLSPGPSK
Sequence of HsCdk9/Cyc E (P50750 whole entry): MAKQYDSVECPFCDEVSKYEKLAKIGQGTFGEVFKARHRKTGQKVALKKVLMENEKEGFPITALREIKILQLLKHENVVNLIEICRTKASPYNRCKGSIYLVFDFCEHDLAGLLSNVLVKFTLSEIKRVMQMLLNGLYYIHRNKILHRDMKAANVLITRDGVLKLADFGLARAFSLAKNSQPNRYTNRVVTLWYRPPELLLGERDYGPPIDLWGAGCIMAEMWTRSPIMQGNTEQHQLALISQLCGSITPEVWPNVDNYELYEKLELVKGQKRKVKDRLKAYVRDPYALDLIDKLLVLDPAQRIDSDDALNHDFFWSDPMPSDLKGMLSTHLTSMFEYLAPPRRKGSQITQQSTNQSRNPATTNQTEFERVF
Sequence of HsCdk9/Cyc E (O60563 whole entry partner): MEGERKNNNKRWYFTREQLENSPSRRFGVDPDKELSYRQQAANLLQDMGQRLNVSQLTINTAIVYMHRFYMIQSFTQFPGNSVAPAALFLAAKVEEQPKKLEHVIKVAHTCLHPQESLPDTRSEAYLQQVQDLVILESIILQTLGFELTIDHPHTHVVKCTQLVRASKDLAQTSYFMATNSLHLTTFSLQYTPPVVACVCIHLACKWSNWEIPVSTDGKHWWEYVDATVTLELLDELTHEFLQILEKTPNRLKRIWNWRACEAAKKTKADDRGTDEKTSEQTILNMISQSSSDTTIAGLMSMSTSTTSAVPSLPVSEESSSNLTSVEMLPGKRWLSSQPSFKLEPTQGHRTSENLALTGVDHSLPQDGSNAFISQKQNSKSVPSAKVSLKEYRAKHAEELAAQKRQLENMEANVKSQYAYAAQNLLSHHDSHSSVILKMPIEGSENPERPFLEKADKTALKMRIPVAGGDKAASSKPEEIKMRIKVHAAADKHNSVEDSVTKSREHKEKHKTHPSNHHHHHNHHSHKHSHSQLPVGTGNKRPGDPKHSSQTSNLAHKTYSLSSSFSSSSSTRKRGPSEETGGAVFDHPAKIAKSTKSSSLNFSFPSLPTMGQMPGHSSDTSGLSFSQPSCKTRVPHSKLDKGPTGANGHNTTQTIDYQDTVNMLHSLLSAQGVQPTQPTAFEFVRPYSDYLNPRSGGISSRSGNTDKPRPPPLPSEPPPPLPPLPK

Row | Structure (SMILES) | melting point [°C] | Effect on cell viability, primary screen [1] | remaining activity at 1 µM (MmCLK1) [%] | Selectivity index CLK1/Haspin (MmCLK1) | pIC50 (MmCLK1) | remaining activity at 1 µM (HsCdk2/Cyc A) [%] | remaining activity at 1 µM (HsHaspin) [%] | pIC50 (HsHaspin) | remaining activity at 1 µM (HsGSK3β) [%] | remaining activity at 1 µM (HsCdk5/p25) [%] | remaining activity at 1 µM (HsCdk9/Cyc E) [%] | remaining activity at 1 µM (HsPIM1) [%] | Selectivity index DYRK/Haspin (RnDYRK1A) | pIC50 (RnDYRK1A) | remaining activity (RnDYRK1A) [%] | pEC50 (U-2 OS cell line) | pEC50 (RPE1 cell line) | Reduction of cell viability compared to the DMSO control [1] [%]
1 | COc1ccc2[nH]c(=O)c3[nH]c4ccccc4c3c2c1 [Compound 46, 2-Methoxy-5,7-dihydro-6H-indolo[2,3-c]quinolin-6-one] | > 250 | little to no effect | 13 | 7 | 7.29 | 80 | 6 | 8.15 | 86 | 78 | 62 | 32 | 10 | 7.17 | 18 | < 4.60 | < 4.60 | –
2 | O=c1[nH]c2ccc(O)cc2c2c1[nH]c1ccccc12 [Compound 48, 2-Hydroxy-5,7-dihydro-6H-indolo[2,3-c]quinolin-6-one] | 235 to 238 | – | 4 | 3 | 7.77 | 84 | 1 | 8.22 | 100 | 87 | 49 | 63 | 3 | 7.72 | 12 | 5.15 | 5.14 | ≥ 75
3 | COc1ccc2[nH]c3c(=O)[nH]c4ccccc4c3c2c1 [Compound 49, 10-Methoxy-5,7-dihydro-6H-indolo[2,3-c]quinolin-6-one] | 232 to 235 | little to no effect | 5 | – | 7.89 | 73 | 2 | 9.00 | 39 | 77 | 40 | 41 | – | 7.82 | 7 | < 4.60 | < 4.60 | –
4 | COc1ccc2c(c1)[nH]c(=O)c1[nH]c3ccc(OC)cc3c12 [Compound 50, 3,10-Dimethoxy-5,7-dihydro-6H-indolo[2,3-c]quinolin-6-one] | 192 to 195 | – | 10 | 13 | 7.06 | 77 | 3 | 8.15 | 44 | 81 | 51 | 19 | 28 | 6.71 | 5 | 5.37 | 4.68 | ≥ 75
5 | COc1ccc2[nH]c(=O)c3[nH]c4ccc(OC)cc4c3c2c1 [Compound 51, 2,10-Dimethoxy-5,7-dihydro-6H-indolo[2,3-c]quinolin-6-one] | 190 to 192 | little to no effect | 5 | 3 | 8.00 | 62 | 1 | 8.40 | 29 | 70 | 33 | 36 | 10 | 7.39 | 14 | 4.90 | < 4.60 | –
6 | COc1ccc2[nH]c3c(=O)[nH]c4cc(O)ccc4c3c2c1 [Compound 54, 3-Hydroxy-10-methoxy-5,7-dihydro-6H-indolo[2,3-c]quinolin-6-one] | 227 to 230 | little to no effect | 11 | 21 | 7.09 | 35 | 0 | 8.40 | 48 | 59 | 18 | 9 | 24 | 7.01 | 2 | < 4.60 | < 4.60 | –
7 | COc1ccc2c(c1)c1c3cc(N(C)C)ccc3[nH]c(=O)c1n2C [Compound 64, 2-(Dimethylamino)-10-methoxy-7-methyl-5,7-dihydro-6H-indolo[2,3-c]quinolin-6-one] | 231 to 234 | – | 11 | – | – | 100 | 39 | – | 81 | 100 | 59 | 82 | – | – | 19 | – | – | –
